Assay [1] can be described thus: (§1) Transient Replicon Assay: In a transient set-up, a Huh-7 lunet hepatoma cell line was transiently transfected with an autonomously replicating RNA encoding a bi-cistronic expression construct. This construct comprises a firefly luciferase reporter gene preceding the NS3-NS5B subgenomic region of HCV (genotype 1a H77 or 1b Con1). Translation of the HCV subgenomic region is mediated by an internal ribosome entry site of encephalomyocarditis virus. The construct is furthermore flanked by 5' and 3' untranslated regions of HCV (genotype 1a H77 or 1b Con 1, respectively), which allow for replication of the RNA. In addition to the wild-type constructs, site-directed mutations were introduced into the transient HCV genotype 1b replicon in the gene encoding for the non-structural protein 5A (NS5A). More precisely, amino acid residues 28, 30, 31 and 93 in NS5A were independently altered. Cells were plated in 384 well plates in the presence of test and control compounds, which were added in various concentrations. Following an incubation of two days, replication of the HCV subgenomic replicon RNA was measured by assaying luciferase activity (using standard luciferase assay substrates and reagents and a Perkin Elmer ViewLux™ ultraHTS microplate imager). HCV subgenomic replicon containing cells in the control cultures have high luciferase expression in the absence of any inhibitor. The inhibitory activity of the compound was monitored, enabling a dose-response curve for each test compound. The assay is classed as cell-based. On the technique in general: Replicon systems follow genome replication, usually without infectious particles.

Assay [2] in a line: Stable Replicon Assay: The assay utilized the stably transfected cell line Huh-7 luc/neo (hereafter referred to as Huh-Luc). This cell line harbors an RNA encoding a bicistronic expression construct comprising the wild type NS3-NS5B regions of HCV type 1b translated from an Internal Ribosome Entry Site (IRES) from encephalomyocarditis virus (EMCV), preceded by a reporter portion (FfL-luciferase), and a selectable marker portion (neoR, neomycine phosphotransferase). The construct is flanked by 5' and 3' NTRs (non-translated regions) from HCV type 1b. Continued culture of the replicon cells in the presence of G418 (neoR) is dependent on the replication of the HCV RNA. The stably transfected replicon cells that replicate HCV RNA autonomously and to high levels, encoding inter alia luciferase, were used for screening the antiviral compounds. The replicon cells were plated in 384 well plates in the presence of the test and control compounds which were added in various concentrations. Following an incubation of three days, HCV replication was measured by assaying luciferase activity (using standard luciferase assay substrates and reagents and a Perkin Elmer ViewLux™ ultraHTS microplate imager). Replicon cells in the control cultures have high luciferase expression in the absence of any inhibitor. The inhibitory activity of the compound was monitored on the Huh-Luc cells, enabling a dose-response curve for each test compound.

Assay [3] concerns the target Nonstructural protein 5A (Hepatitis C virus, UniProt Q5L478). Described as §1. It is filed as cell-based.

Results on 5 compounds are retold here after ChEMBL document CHEMBL3886209, “Benzimidazole-imidazole derivatives” (2016).

pEC50: −log10 of the molar value. Bounds are passed on as bounds.

As for `CC[C@@H](C)[C@H](NC(=O)OC)C(=O)N1CCC[C@H]1c1ncc(-c2ccc3cc(-c4ccc5nc([C@@H]6CCCN6C(=O)[C@@H](NC(=O)OC)[C@H](C)CC)[nH]c5c4)ccc3c2)[nH]1`, the negative logarithm of the EC50 (pEC50) is 11.70 in assay [1] and 11.52 in assay [2].
For `COC(=O)N[C@H](C(=O)N1CCC[C@H]1c1nc2ccc(-c3ccc4cc(-c5cnc([C@@H]6CCCN6C(=O)[C@@H](NC(=O)OC)[C@@H](C)OC)[nH]5)ccc4c3)cc2[nH]1)C(C)C`, the pEC50 in assay [2] is 11.22.
As for `CC[C@H](C)[C@H](NC(=O)OC)C(=O)N1CCC[C@H]1c1nc2cc(-c3ccc4cc(-c5cnc([C@@H]6CCCN6C(=O)[C@@H](NC(=O)OC)[C@@H](C)OC)[nH]5)ccc4c3)ccc2[nH]1`, the pEC50 is 11.40 in assay [1] and 11.52 in assay [2].
Take `CC[C@H](C)[C@H](NC(=O)OC)C(=O)N1CCC[C@H]1c1nc2ccc(-c3ccc4cc(-c5cnc([C@@H]6CCCN6C(=O)[C@@H](NC(=O)OC)C(C)C)[nH]5)ccc4c3)cc2[nH]1`: the pEC50 in assay [3] is > 10.89.
In the case of `COC(=O)N[C@H](C(=O)N1CCC[C@H]1c1ncc(-c2ccc3cc(-c4ccc5nc([C@@H]6CCCN6C(=O)[C@@H](NC(=O)OC)[C@@H](C)OC)[nH]c5c4)ccc3c2)[nH]1)C(C)C`, the pEC50 in assay [3] is > 10.77.

As a reminder, the pEC50 is −log10 of the EC50, conventionally taken in molar units.
